Entries after “also recorded” stand apart in the source; their conditions may differ.
What was measured:
[1] = system: VCAM; assay: Western blot analysis of HUVECs, VCAM; details: 100 nM, lysates at 0, 16 and 24 hours
[2] = system: VEGF-A; assay: VEGF-A ELISA in KM12L4a tumor lysates; assay type: in vivo, mouse; details: 100 mg/kg for 7 days; KM12L4a tumors in Nu/nu mice; listed as 4-amino-5-fluoro-3-[6-(4-methylpiperazin-1-yl)-1H-benzimidazol-2-yl]quinolin-2(1)
Description: […]. Tumor cells (2×10^6 KM12L4a) were implanted subcutaneous into the flank of mice and allowed to grow to the desired size before treatment was initiated. […] The tumors were resected and flash frozen in liquid nitrogen.
VEGF-A protein levels in KM12L4a tumor lysates were quantified using a commercially available ELISA kit (R and D Systems, Minneapolis, Minn.) according to the manufacturer's procedures.

[3] = system: MMP-9; assay: Zymography for MMP-9 activity in KM12L4a human colon xenografts; assay type: in vivo, mouse; details: 100 mg/kg for 7 days; KM12L4a tumors in Nu/nu mice; listed as 4-amino-5-fluoro-3-[6-(4-methylpiperazin-1-yl)-1H-benzimidazol-2-yl]quinolin-2(1)
Protocol: Female Nu/nu mice (6-8 weeks old, 18-22 grams) were obtained from Charles River Laboratories (Wilmington, Mass.). Tumor cells (2×10^6 KM12L4a) were implanted subcutaneous into the flank of mice and allowed to grow to the desired size before treatment was initiated. […] The tumors were resected and flash frozen in liquid nitrogen.
After electrophoresis, gels were washed twice for 15 minutes in 2.5% Triton X-100, incubated overnight at 37° C. in 50 mM Tris-HCl and 10 mM CaCl2, pH 7.6, and stained with 0.5% Comassie Blue and destained with 50% methanol.

[4] = system: soluble VCAM; assay: Soluble VCAM ELISA in serum of 4T1 tumor bearing mice; details: 4T1 breast tumors
[5] = system: α5 integrin; assay: Western blot analysis of HUVECs, α5 integrin; details: 100 nM, lysates at 0, 16 and 24 hours
[6] = system: 4T1 breast tumor cells; assay: 4T1 spontaneously metastatic mouse breast tumor model: subcutaneous tumor growth, liver and lung metastases; assay type: in vivo
[7] = system: ICAM; assay: Western blot analysis of HUVECs, ICAM; details: 100 nM, lysates at 0, 16 and 24 hours
[8] = system: αv integrin; assay: Western blot analysis of HUVECs, αv integrin; details: 100 nM; lysates at 0, 16 and 24 hours
[9] = system: KM12L4a human colon tumors; assay: Antibody immunohistochemistry staining of KM12L4a human colon tumors (Ki67, PARP, caspase-3, CD31); assay type: in vivo, mouse; details: 100 mg/kg for 7 days
[10] = system: soluble ICAM; assay: Soluble ICAM ELISA in serum of 4T1 tumor bearing mice; details: 4T1 breast tumors
[11] = listed as 4-amino-5-fluoro-3-[6-(4-methylpiperazin-1-yl)-1H-benzimidazol-2-yl]quinolin-2(1)
[12] = 100 or 150 mg/kg orally, daily for 18 days
[13] = varying amounts (10-150 mg/kg), 18 days
[14] = 10 mpk orally, daily for 18 days
[15] = 30 mpk orally, daily for 18 days
[16] = 60 mpk orally, daily for 18 days
[17] = 100 mpk orally, daily for 18 days
[18] = 150 mpk orally, daily for 18 days
[19] = orally, daily, after 18 days of dosing, BALB/C mice

Structure (SMILES): CN1CCN(c2ccc3nc(-c4c(N)c5c(F)cccc5[nH]c4=O)[nH]c3c2)CC1 [Compound 1]
- expression of VCAM in HUVECs [1]: decreased
- expression of VCAM in HUVECs [1, 11]: decrease
- VEGF production in tumors (ELISA) [2]: reduced VEGF production; also recorded: decrease
- MMP-9 activity in tumors (zymography) [3]: decreased MMP-9 activity; also recorded: decrease
- inhibition of soluble VCAM in serum [4, 12]: 44-47%
- soluble VCAM in serum, effect in words [4, 13]: dose-dependent reduction
- expression of α5 integrin in HUVECs [5]: decreased
- expression of α5 integrin in HUVECs [5, 11]: decrease
- growth of the subcutaneous tumor inhibited compared to control ([6]; 10-150 mg/kg orally, daily for 18 days, BALB/C mice): 40-80%
- # of Liver Metastases Mean +/− SD [6, 14]: 22.0 +/− 32.3
- Liver Metastases: Incidence of Metastases [6, 14]: 7/8
- # of Liver Metastases Mean +/− SD [6, 15]: 3.1 +/− 3.5
- Liver Metastases: Incidence of Metastases [6, 15]: 6/10
- # of Liver Metastases Mean +/− SD [6, 16]: 0.7 +/− 0.9
- Liver Metastases: Incidence of Metastases [6, 16]: 5/10
- # of Liver Metastases Mean +/− SD [6, 17]: 4.1 +/− 13.0
- Liver Metastases: Incidence of Metastases [6, 17]: 1/10
- # of Liver Metastases Mean +/− SD [6, 18]: 0.0 +/− 0.0
- Liver Metastases: Incidence of Metastases [6, 18]: 0/9
- liver metastases inhibition [6, 19]: completely inhibited
- lung metastases inhibited [6, 19]: 60-97%
- expression of ICAM in HUVECs [7]: decreased
- expression of ICAM in HUVECs [7, 11]: decrease
- expression of αv integrin in HUVECs [8]: not αν integrin
- apoptosis (PARP cleavage and caspase-3) [9]: induced apoptosis
- tumor cell proliferation (Ki67) [9]: decreased tumor cell proliferation
- vascular density (CD31) [9]: reduced vascular density
- inhibition of soluble ICAM in serum [10, 12]: greater than 70%
- soluble ICAM in serum, effect in words [10, 13]: dose-dependent reduction
